No end group written: not given here.
Tests used:
Type in all cases: cell-based, human
[1] = test system: C1R-A2402 cells (HLA-A24+) pulsed with the same peptide; assay: IFN-γ production (ELISA) by peptide-stimulated PBMC in reaction to peptide-pulsed C1R-A2402 cells; induction of HLA-A24-restricted CTL; conditions: PBMC of prostate cancer patients; for cases in which the peptide enhanced the production of IFN-γ from PBMC: 10 μM peptide, 10 days, positive = significant, 50 pg/ml NET or more, Example 1
Method: The ability of the synthesized peptide to induce HLA-A24-restricted CTL from the PBMC that was prepared from a prostate cancer patient was examined. The PBMC were prepared from blood by a method of the art. 1×10^5 PBMC were cultured with 10 μM of each peptide in each well of a U-shaped 96-well micro-culture plate (produced by Nunc) to which 200 μl of culture medium (comprising 45% RPMI-1640 culture medium, 45% AIM-V® culture medium (Invitrogen), 100 U/ml of IL-2, 0.1 mM of MEM non-essential amino acid solution (Invitrogen), and 10% FCS) was added, at 37° C. under conditions of 5% CO2-95% air. At 4 days and 7 days of culturing, half of the culture medium was removed and replaced with a culture medium having the aforementioned composition containing the peptide equivalent to the peptide that was added in the beginning. At 10 days of culturing, the cells were collected, washed, and used as effector cells (E).
Meanwhile, each synthesized peptide (10 μM) was incubated with C1R-A2402 cells (HLA-A24^+) for 2 hours at 37° C. under conditions of 5% CO2-95% air, to make the peptide of interest bind to the HLA-A24 molecule expressed on the cell surface. C1R-A2402 cells thus pulsed with each of peptide were used as target cells (T).
The effector cells were equally divided, and mixed with a variety of target cells, followed by incubating for 18 hours at 37° C. under conditions of 5% CO2-95% air. After incubation, 100 μl of supernatant was collected, and the amount of IFN-γ produced was measured by ELISA. In so doing, the effector cells were paired with the target cells in such a way that the peptide used to induce the effector cells and the peptide pulsed to C1R-A2402 cells were the same. In addition, a peptide derived from the human immunodeficiency virus (hereinafter abbreviated as HIV) was used as a control, and the quantity of IFN-γ produced by CTL that recognized C1R-A2402 cells pulsed with the HIV peptide was taken as a background and subtracted from each measurement value. Each measurement value (NET) that has been calculated was statistically processed by the Student's t-test, and those with a P value of 0.05 or below were considered to be significant. In addition, a peptide that enhanced IFN-γ production with significance by 50 pg/ml NET or more was assessed as positive. […]

[2] = test system: PC93-A24 cells (HLA-A24+ prostate cancer cell); assay: 6-hour 51Cr release test of peptide-induced CTL against HLA-A24+ prostate cancer cells; conditions: for Cytotoxic activity (% lysis): HLA-A24+ prostate cancer cell
Method: (§1) The cytotoxic activity of CTL induced from the PBMC of an HLA-A24^+ prostate cancer patient by PSM624-632 (SEQ ID NO: 3) was examined in the ^51Cr release test using prostate cancer cells. First, PBMC from two patients with prostate cancer were cultured for 10 days and stimulated as in Example 1, and then further cultured for 10 days prior to use as effector cells. The cytotoxic activity of the effector cells against HLA-A24^+ target cells was measured by a standard 6-hour ^51Cr release test at an E/T ratio of 10:1 or 20:1, and the results obtained were expressed as the percentage of specific lysis. PC93-A24 cells resulting from the introduction and expression of the HLA-A24 gene in HLA-A24^− prostate cancer cells (PC93), methods known in the art, were used as target cells. In addition, the HLA-A24^− prostate cancer cells were used as controls.
PBMC were cultured with 10 μg/ml each of PSA152-160 (SEQ ID NO: 1) or PSA248-257 (SEQ ID NO: 2) for 12 days, in the same manner as described above. Prostate cancer cells PC93-A24, which were created in Example 2 and used as target cells, were incubated with the aforementioned cultured PBMC, and then the amount of IFN-γ in the culture supernatant was measured (see Example 1). In addition, the aforementioned cultured cells were cultured for 14 additional days, and the cytotoxic activity against the PC93-A24 cells was measured by the ^51Cr release test (see Example 2).

[3] = test system: HLA-A24- prostate cancer cells (PC93); assay: 6-hour 51Cr release test of peptide-induced CTL against HLA-A24- prostate cancer cells (control); conditions: HLA-A24- prostate cancer cell
Method: as §1

[4] = PBMC of prostate cancer patient 1, E/T = 10
[5] = PBMC of prostate cancer patient 1, E/T = 20
[6] = PBMC of prostate cancer patient 2, E/T = 10
[7] = PBMC of prostate cancer patient 2, E/T = 20
[8] = PBMC of a healthy subject, stimulated 12 days + 14 days, significant versus PC93 cells (FIG. 7B)
[9] = PBMC of prostate cancer patients, significant versus PC93 cells (FIG. 8B)

PSM565-574: peptide derived from PSMA that did not induce HLA-A24-restricted CTL (FYDPMFKYHL)
induction of HLA-A24-restricted CTL [1]: did not induce

PSM624-633: peptide derived from PSMA that did not induce HLA-A24-restricted CTL (TYSVSFDSLF)
induction of HLA-A24-restricted CTL [1]: did not induce

PSM699-708: peptide derived from PSMA that did not induce HLA-A24-restricted CTL (KYAGESFPGI)
induction of HLA-A24-restricted CTL [1]: did not induce

PSM520-528: peptide derived from PSMA that did not induce HLA-A24-restricted CTL (DFEVFFQRL)
induction of HLA-A24-restricted CTL [1]: did not induce

PSM704-712: peptide derived from PSMA that did not induce HLA-A24-restricted CTL (SFPGIYDAL)
induction of HLA-A24-restricted CTL [1]: did not induce

PSM606-614: peptide derived from PSMA that did not induce HLA-A24-restricted CTL (KYADKIYSI)
induction of HLA-A24-restricted CTL [1]: did not induce

PSM74-83: peptide derived from PSMA that did not induce HLA-A24-restricted CTL (LYNFTQIPHL)
induction of HLA-A24-restricted CTL [1]: did not induce

PSM178-186: peptide derived from PSMA that did not induce HLA-A24-restricted CTL (NYARTEDFF)
induction of HLA-A24-restricted CTL [1]: did not induce

TYSVSFDSL [PSM624-632]
Cytotoxic activity (% lysis) [2, 4]: 16.1 % lysis
Cytotoxic activity (% lysis) [2, 5]: 19.9 % lysis
Cytotoxic activity (% lysis) [2, 6]: 18.0 % lysis
Cytotoxic activity (% lysis) [2, 7]: 17.8 % lysis
Cytotoxic activity (% lysis) [3, 4]: 6.6 % lysis
Cytotoxic activity (% lysis) [3, 5]: 6.1 % lysis
Cytotoxic activity (% lysis) [3, 6]: 3.5 % lysis
Cytotoxic activity (% lysis) [3, 7]: 5.6 % lysis

PSCA82-91: peptide derived from PSCA, residues 82-91, HLA-A24-binding motif (KNITCCDTDL; A peptide recognized by HLA-A24 restricted cytotoxic T lymphocytes, which is designed based on the amino acid sequence of PSCA)
cases in which the peptide enhanced the production of IFN-γ from PBMC [1]: 2 out of 12

PSM448-456: peptide derived from PSMA that did not induce HLA-A24-restricted CTL (AYINADSSI)
induction of HLA-A24-restricted CTL [1]: did not induce

PSM298-306: peptide derived from PSMA that did not induce HLA-A24-restricted CTL (GYYDAQKLL)
induction of HLA-A24-restricted CTL [1]: did not induce

PSM584-593: peptide derived from PSMA that did not induce HLA-A24-restricted CTL (VFELANSIVL)
induction of HLA-A24-restricted CTL [1]: did not induce

PSM227-235: peptide derived from PSMA that did not induce HLA-A24-restricted CTL (LYSDPADYF)
induction of HLA-A24-restricted CTL [1]: did not induce

PSCA27-36: peptide (PSCA residues 27-36) that did not induce HLA-A24-restricted CTL (LQVENCTQLG)
induction of HLA-A24-restricted CTL [1]: did not induce

PSCA76-84: peptide derived from PSCA, residues 76-84, HLA-A24-binding motif (DYYVGKKNI; A peptide recognized by HLA-A24 restricted cytotoxic T lymphocytes, which is designed based on the amino acid sequence of PSCA)
cases in which the peptide enhanced the production of IFN-γ from PBMC [1]: 1 out of 12

CYASGWGSI [PSA152-160]
cytotoxic activity against PC93-A24 cells [2, 8]: exhibited cytotoxic activity
cytotoxic activity against PC93-A24 cells [2, 9]: exhibited cytotoxic activity

HYRKWIKDTI [PSA248-257]
cytotoxic activity against PC93-A24 cells [2, 8]: exhibited cytotoxic activity
cytotoxic activity against PC93-A24 cells [2, 9]: exhibited cytotoxic activity

From US20100015169A1, “Tumor Antigens” (GREEN PEPTIDE CO., LTD., priority 2001, published 2010)
